Data taken from patent publication US8455475B2 (Gruenenthal GmbH, priority 2009, dated 2013).

How the values were obtained:
[1] = biological target: T1, human B1R (bradykinin receptor 1) (Homo sapiens, UniProt P46663); assay: FLIPR Ca2+ assay (Fluo-4) on CHO K1 cells stably transfected with the human B1R gene (hB1R cells): % inhibition at 10 μM / IC50, agonist Lys-Des-Arg9-bradykinin; type: cell-based; conditions: for inhibition at 10 µM: CHO-K1, human B1R
T1 construct: expressed in transfected cells; host or cells: CHO K1 cells
T1 sequence (P46663 1-353): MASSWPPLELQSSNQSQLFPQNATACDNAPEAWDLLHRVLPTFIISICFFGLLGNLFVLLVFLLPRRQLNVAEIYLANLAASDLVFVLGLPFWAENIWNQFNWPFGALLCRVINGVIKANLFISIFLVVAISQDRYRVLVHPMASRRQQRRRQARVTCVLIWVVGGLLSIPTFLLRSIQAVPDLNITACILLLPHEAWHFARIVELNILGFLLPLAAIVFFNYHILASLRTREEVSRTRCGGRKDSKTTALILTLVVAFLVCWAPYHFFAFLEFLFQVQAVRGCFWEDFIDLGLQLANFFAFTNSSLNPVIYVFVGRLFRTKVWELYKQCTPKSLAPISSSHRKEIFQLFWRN
In short: (§1)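 Peak fluorescence counts read on FLIPR (λex 488, λem 540 nm) after two additions: compound first, then agonist at EC80 after 10–20 min. Human line challenged with Lys-Des-Arg9-bradykinin, rat line with Des-Arg9-bradykinin. Suppression of Ca2+ inflow expressed as % of maximum inhibition.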

[2] = biological target: T2, rat B1R (bradykinin receptor 1) (Rattus norvegicus, UniProt P97583); assay: FLIPR Ca2+ assay (Fluo-4) on CHO K1 cells stably transfected with the B1R gene of the rat (rB1R cells): % inhibition at 10 μM / IC50, agonist Des-Arg9-bradykinin; type: cell-based; conditions: for inhibition at 10 µM: CHO-K1, rat B1R
T2 construct: expressed in transfected cells; host or cells: CHO K1 cells
T2 sequence (P97583 1-337): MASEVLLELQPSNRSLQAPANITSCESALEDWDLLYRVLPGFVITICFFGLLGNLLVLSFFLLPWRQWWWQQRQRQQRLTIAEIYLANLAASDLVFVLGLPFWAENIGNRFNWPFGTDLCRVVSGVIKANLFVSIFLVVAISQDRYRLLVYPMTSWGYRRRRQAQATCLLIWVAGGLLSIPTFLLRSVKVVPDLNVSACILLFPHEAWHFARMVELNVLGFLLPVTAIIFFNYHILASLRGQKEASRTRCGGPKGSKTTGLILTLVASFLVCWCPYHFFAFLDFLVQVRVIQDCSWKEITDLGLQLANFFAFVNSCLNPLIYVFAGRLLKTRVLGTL
In short: as §1

inhibition at 10 µM [1] | inhibition at 10 µM [2] | % Inhibition (human B1R) at 10 μM [1] | % Inhibition (rat B1R) at 10 μM [2] | % Inhibition (rat B1R) at 10 μM ([2]; 10 µM) | SMILES
100% | 109% |  |  |  | O=C(N[C@@H]1CCc2ccc(C(=O)N3CCC4(CCN(c5ccncc5)CC4)C3)cc21)c1c(F)cccc1Cl [Example H-109, 2-Chloro-6-fluoro-N-[(1R)-6-(8-pyridin-4-yl-3,8-diazaspiro[4.5]decane-3-carbonyl)-2,3-dihydro-1H-inden-1-yl]-benzamide]
99% | 103% |  |  |  | CC1(C)CC(NC(=O)c2cc(Cl)ccc2Cl)c2cc(C(=O)N3CCC4(CC3)CCN(c3ccncc3)CC4)ccc21 (stereo not shown) [IND_CC-244, 2,5-Dichloro-N-[3,3-dimethyl-6-(3-pyridin-4-yl-3,9-diazaspiro[5.5]undecane-9-carbonyl)-1,2-dihydro-inden-1-yl]-benzamide]
100% | 101% |  |  |  | O=C(c1ccc2c(c1)[C@H](NS(=O)(=O)c1ccccc1F)CC2)N1CCC2(CCN(c3ccncc3)CC2)C1 [Example H-116, 2-Fluoro-N-[(1R)-6-(8-pyridin-4-yl-3,8-diazaspiro[4.5]decane-3-carbonyl)-2,3-dihydro-1H-inden-1-yl]-benzenesulfonic acid amide]
100% | 102% |  |  |  | CN(C(=O)c1cc(Cl)ccc1Cl)C1CCc2ccc(C(=O)N3CCC4(CC3)CCN(c3ccncc3)CC4)cc21 (stereo not shown) [IND_CC-200, 2,5-Dichloro-N-methyl-N-[6-(9-pyridin-4-yl-3,9-diazaspiro[5.5]undecane-3-carbonyl)-2,3-dihydro-1H-inden-1-yl]-benzamide]
97% | 100% |  |  |  | O=C(c1ccc2c(c1)[C@H](NS(=O)(=O)Cc1ccccc1Cl)CC2)N1CCC2(CCN(c3ccncc3)CC2)C1 [Example H-150, 1-(2-Chlorophenyl)-N-[(1R)-6-(8-pyridin-4-yl-3,8-diazaspiro[4.5]decane-3-carbonyl)-2,3-dihydro-1H-inden-1-yl]-methanesulfonic acid amide]
99% | 101% |  |  |  | O=C(N[C@@H]1CCc2ccc(C(=O)N3CCC4(CCN(c5ccncc5)CC4)C3)cc21)c1cc(F)ccc1Cl [Example H-141, 2-Chloro-5-fluoro-N-[(1R)-6-(8-pyridin-4-yl-3,8-diazaspiro[4.5]decane-3-carbonyl)-2,3-dihydro-1H-inden-1-yl]-benzamide]
99% | 103% |  |  |  | CC1(C)CC(NC(=O)Cc2ccccc2Cl)c2cc(C(=O)N3CCC4(CC3)CCN(c3ccncc3)CC4)ccc21 (stereo not shown) [Ind_CC-053, 2-(2-chlorophenyl)-N-[3,3-dimethyl-6-(9-pyridin-4-yl-3,9-diazaspiro[5.5]undecane-3-carbonyl)-1,2-dihydro-inden-1-yl]-acetamide]
59% | 11% |  |  |  | O=C(c1ccc2c(c1)[C@@H](N1Cc3cccc(Cl)c3C1=O)CCC2)N1CCC2(CCN(c3ccncc3)CC2)C1 [Example H-15, 7-chloro-2-[(1S)-7-(8-pyridin-4-yl-3,8-diazaspiro[4.5]decane-3-carbonyl)-1,2,3,4-tetrahydro-naphthalen-1-yl]-2,3-dihydro-isoindol-1-one]
100% | 93% |  |  |  | COc1cc(C)c(S(=O)(=O)NC2CCc3ccc(C(=O)N4CCC5(CC4)CCN(c4ccncc4)C5)cc32)c(C)c1 (stereo not shown) [Ind_CC-050, 4-methoxy-2,6-dimethyl-N-[6-(2-pyridin-4-yl-2,8-diazaspiro[4.5]decane-8-carbonyl)-2,3-dihydro-1H-inden-1-yl]-benzenesulfonic acid amide]
100% | 102% |  |  |  | Cc1cc(N2CCC3(CCN(C(=O)c4ccc5c(c4)[C@H](NC(=O)c4ccccc4Cl)CC5)C3)CC2)ccn1 [Example H-112, 2-Chloro-N-[(1R)-6-[8-(2-methyl-pyridin-4-yl)-3,8-diazaspiro[4.5]decane-3-carbonyl]-2,3-dihydro-1H-inden-1-yl]-benzamide]
63% | 105% |  |  |  | O=C(N[C@H]1CCc2c(C(=O)N3CCC4(CC3)CCN(c3ccncc3)CC4)cccc21)c1ccccc1Cl [Example H-163, 2-Chloro-N-[(1S)-4-(9-pyridin-4-yl-3,9-diazaspiro[5.5]undecane-3-carbonyl)-2,3-dihydro-1H-inden-1-yl]-benzamide]
95% | 79% |  |  |  | O=C(N[C@@H]1CCc2ccc(C(=O)N3CCC4(CC3)CCN(c3ccncc3)C4)cc21)c1cncnc1 [Example H-86, N-[(1R)-6-(3-Pyridin-4-yl-3,8-diazaspiro[4.5]decane-8-carbonyl)-2,3-dihydro-1H-inden-1-yl]-pyrimidine-5-carboxylic acid amide]
 |  | 36% | 76% |  | O=C(Nc1ccc(Cl)c(Cl)c1)NC1CCc2ccc(C(=O)N3CCC4(CC3)CCN(c3ccncc3)CC4)cc21 (stereo not shown) [Ind_CC-011]
 |  | 100% |  | 106% | O=C(NC1CCc2ccc(C(=O)N3CCC4(CCN(c5ccncc5)CC4)C3)cc21)c1ccccc1Cl (stereo not shown) [IND_CC-293, 2-Chloro-N-[6-(8-pyridin-4-yl-2,8-diazaspiro[4.5]decane-2-carbonyl)-2,3-dihydro-1H-inden-1-yl]-benzamide]
 |  | 100% |  | 106% | O=C(NC1CCc2ccc(C(=O)N3CCC4(CC3)CCN(c3ccncc3)C4)cc21)c1ccccc1Cl (stereo not shown) [IND_CC-271, 2-Chloro-N-[6-(2-pyridin-4-yl-2,8-diazaspiro[4.5]decane-8-carbonyl)-2,3-dihydro-1H-inden-1-yl]-benzamide]
35% | 101% |  |  |  | O=C(NC1CCc2ccc(C(=O)N3CCC4(CC3)CCN(c3ccc(C(F)(F)F)cc3)CC4)cc21)c1c(F)cccc1Cl (stereo not shown) [IND_CC-278, 2-Chloro-6-fluoro-N-[6-[9-[4-(trifluoromethyl)-phenyl]-3,9-diazaspiro[5.5]undecane-3-carbonyl]-2,3-dihydro-1H-inden-1-yl]-benzamide]
99% | 101% |  |  |  | O=C(c1ccc2c(c1)C(N(C(=O)c1ccccc1Cl)C1CC1)CC2)N1CCC2(CC1)CCN(c1cccnc1)CC2 (stereo not shown) [Ind_CC-114, 2-chloro-N-cyclopropyl-N-[6-(9-pyridin-3-yl-3,9-diazaspiro[5.5]undecane-3-carbonyl)-2,3-dihydro-1H-inden-1-yl]-benzamide]
96% | 101% |  |  |  | O=C(NC1CCc2ccc(C(=O)N3CCC4(CC3)CCN(c3ccncc3)CC4)cc21)c1cccc(C(F)(F)F)c1Cl (stereo not shown) [IND_CC-232, 2-Chloro-N-[6-(9-pyridin-4-yl-3,9-diazaspiro[5.5]undecane-3-carbonyl)-2,3-dihydro-1H-inden-1-yl]-3-(trifluoromethyl)-benzamide]
98% | 102% |  |  |  | COc1cc(C)c(S(=O)(=O)N[C@@H]2CCCc3ccc(C(=O)N4CCC5(CC4)CCN(c4ccncc4)CC5)cc32)c(C)c1 [Example H-17, 4-methoxy-2,6-dimethyl-N-[(1R)-7-(9-pyridin-4-yl-3,9-diazaspiro[5.5]undecane-3-carbonyl)-1,2,3,4-tetrahydro-naphthalen-1-yl]-benzenesulfonic acid amide]
100% | 108% |  |  |  | O=C(N[C@@H]1CCc2ccc(C(=O)N3CCC4(CC3)CCN(c3ccncc3)CC4)cc21)c1c(Cl)cccc1Cl [Example H-100, 2,6-Dichloro-N-[(1R)-6-(9-pyridin-4-yl-3,9-diazaspiro[5.5]undecane-3-carbonyl)-2,3-dihydro-1H-inden-1-yl]-benzamide]
99% | 101% |  |  |  | O=C(c1ccc2c(c1)C(NS(=O)(=O)c1ccccc1Cl)CC2)N1CCC2(CC1)CCN(c1ccncc1)C2 (stereo not shown) [Ind_CC-049, 2-chloro-N-[6-(2-pyridin-4-yl-2,8-diazaspiro[4.5]decane-8-carbonyl)-2,3-dihydro-1H-inden-1-yl]-benzenesulfonic acid amide]
93% | 101% |  |  |  | CN(C(=O)c1ccccn1)C1CCc2ccc(C(=O)N3CCC4(CC3)CCN(c3ccncc3)CC4)cc21 (stereo not shown) [Ind_CC-014, N-methyl-N-[6-(9-pyridin-4-yl-3,9-diazaspiro[5.5]undecane-3-carbonyl)-2,3-dihydro-1H-inden-1-yl]-pyridine-2-carboxylic acid amide]

SMILES | inhibition at 10 µM [1] | inhibition at 10 µM [2] | % Inhibition (human B1R) at 10 μM [1] | % Inhibition (rat B1R) at 10 μM [2] | % Inhibition (rat B1R) at 10 μM ([2]; 10 µM)
COc1cc(C)c(C(=O)NC2CCc3ccc(C(=O)N4CCC5(CC4)CCC(c4ccc(F)cc4)(N(C)C)CC5)cc32)c(C)c1 (stereo not shown) [Ind_CC-093, N-[6-[9-dimethylamino-9-(4-fluorophenyl)-3-azaspiro[5.5]undecane-3-carbonyl]-2,3-dihydro-1H-inden-1-yl]-4-methoxy-2,6-dimethyl-benzamide] | 34% | 74% |  |  | 
